According to patent publication US11053204B2, “Pyrimidinyloxy benzene derivatives as herbicides” (FMC Corporation, priority 2015, dated 2021):

Columns and labels:
Assay in all cases: Test C postemergence, plant response rating
Format in all cases: in vivo
[1] = test system: morningglory (Ipomoea coccinea); settings: for Plant response rating, Morningglory: scale 0 to 100; for Morningglory plant response rating: scale 0 to 100 (0 no effect, 100 complete control)
In short: (§1)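 Visual injury score, 0 = no effect, 100 = complete control, assigned against untreated controls after 13 to 15 d in the greenhouse. Compounds were applied in a surfactant-containing non-phytotoxic solvent mix, preemergence to seeded loam/sand or silt loam soil, or postemergence to 1- to 4-leaf plants (2 to 18 cm).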

[2] = test system: barnyardgrass (Echinochloa crus-galli); settings: for Plant response rating, Barnyardgrass: scale 0 to 100; for Barnyardgrass plant response rating: scale 0 to 100 (0 no effect, 100 complete control)
In short: as §1

[3] = test system: nutsedge, yellow (yellow nutsedge, Cyperus esculentus); settings: for Plant response rating, Nutsedge, Yellow: scale 0 to 100; for Nutsedge, Yellow plant response rating: scale 0 to 100 (0 no effect, 100 complete control)
In short: as §1

[4] = test system: chickweed (common chickweed, Stellaria media); settings: for Plant response rating, Chickweed: scale 0 to 100; for Chickweed plant response rating: scale 0 to 100 (0 no effect, 100 complete control)
In short: as §1

[5] = test system: ryegrass, Italian (Italian ryegrass, Lolium multiflorum); settings: for Plant response rating, Ryegrass, Italian: scale 0 to 100; for Ryegrass, Italian plant response rating: scale 0 to 100 (0 no effect, 100 complete control)
In short: as §1

[6] = test system: ragweed (common ragweed, Ambrosia elatior); settings: for Plant response rating, Ragweed: scale 0 to 100; for Ragweed plant response rating: scale 0 to 100 (0 no effect, 100 complete control)
In short: as §1

[7] = test system: oat, wild (wild oat Avena fatua); settings: for Plant response rating, Oat, Wild: scale 0 to 100; for Oat, Wild plant response rating: scale 0 to 100 (0 no effect, 100 complete control)
In short: as §1

[8] = test system: velvetleaf (Abutilon theophrasti); settings: for Plant response rating, Velvetleaf: scale 0 to 100; for Velvetleaf plant response rating: scale 0 to 100 (0 no effect, 100 complete control)
In short: as §1

[9] = test system: lambsquarters (Chenopodium album); settings: for Plant response rating, Lambsquarters: scale 0 to 100; for Lambsquarters plant response rating: scale 0 to 100 (0 no effect, 100 complete control)
In short: as §1

[10] = test system: blackgrass (Alopecurus myosuroides); settings: for Plant response rating, Blackgrass: scale 0 to 100; for Blackgrass plant response rating: scale 0 to 100 (0 no effect, 100 complete control)
In short: as §1

[11] = test system: wheat (winter wheat, Triticum aestivum); settings: for Plant response rating, Wheat: scale 0 to 100; for Wheat plant response rating: scale 0 to 100 (0 no effect, 100 complete control)
In short: as §1

SMILES: N#CCCOC(=O)c1c(Br)cccc1Oc1ncc(Cl)cn1 [Compound 7]
- Plant response rating, Morningglory ([1]; 16 g ai/ha): 5
- Plant response rating, Morningglory ([1]; 31 g ai/ha): 25
- Morningglory plant response rating ([1]; 62 g ai/ha): 40
- Morningglory plant response rating ([1]; 125 g ai/ha): 55
- Plant response rating, Barnyardgrass ([2]; 16 g ai/ha): 5
- Plant response rating, Barnyardgrass ([2]; 31 g ai/ha): 5
- Barnyardgrass plant response rating ([2]; 62 g ai/ha): 15
- Barnyardgrass plant response rating ([2]; 125 g ai/ha): 10
- Plant response rating, Nutsedge, Yellow ([3]; 16 g ai/ha): 0
- Plant response rating, Nutsedge, Yellow ([3]; 31 g ai/ha): 0
- Nutsedge, Yellow plant response rating ([3]; 62 g ai/ha): 5
- Nutsedge, Yellow plant response rating ([3]; 125 g ai/ha): 5
- Plant response rating, Chickweed ([4]; 16 g ai/ha): 5
- Plant response rating, Chickweed ([4]; 31 g ai/ha): 5
- Chickweed plant response rating ([4]; 62 g ai/ha): 30
- Chickweed plant response rating ([4]; 125 g ai/ha): 50
- Plant response rating, Ryegrass, Italian ([5]; 16 g ai/ha): 10
- Plant response rating, Ryegrass, Italian ([5]; 31 g ai/ha): 0
- Ryegrass, Italian plant response rating ([5]; 62 g ai/ha): 30
- Ryegrass, Italian plant response rating ([5]; 125 g ai/ha): 30
- Plant response rating, Ragweed ([6]; 16 g ai/ha): 10
- Plant response rating, Ragweed ([6]; 31 g ai/ha): 20
- Ragweed plant response rating ([6]; 62 g ai/ha): 20
- Ragweed plant response rating ([6]; 125 g ai/ha): 25
- Plant response rating, Oat, Wild ([7]; 16 g ai/ha): 0
- Plant response rating, Oat, Wild ([7]; 31 g ai/ha): 0
- Oat, Wild plant response rating ([7]; 62 g ai/ha): 5
- Oat, Wild plant response rating ([7]; 125 g ai/ha): 5
- Plant response rating, Velvetleaf ([8]; 16 g ai/ha): 5
- Plant response rating, Velvetleaf ([8]; 31 g ai/ha): 20
- Velvetleaf plant response rating ([8]; 62 g ai/ha): 35
- Velvetleaf plant response rating ([8]; 125 g ai/ha): 40
- Plant response rating, Lambsquarters ([9]; 16 g ai/ha): 5
- Plant response rating, Lambsquarters ([9]; 31 g ai/ha): 25
- Lambsquarters plant response rating ([9]; 62 g ai/ha): 30
- Lambsquarters plant response rating ([9]; 125 g ai/ha): 55
- Plant response rating, Blackgrass ([10]; 16 g ai/ha): 0
- Plant response rating, Blackgrass ([10]; 31 g ai/ha): 0
- Blackgrass plant response rating ([10]; 62 g ai/ha): 0
- Blackgrass plant response rating ([10]; 125 g ai/ha): 5
- Plant response rating, Wheat ([11]; 16 g ai/ha): 0
- Plant response rating, Wheat ([11]; 31 g ai/ha): 0
- Wheat plant response rating ([11]; 62 g ai/ha): 5
- Wheat plant response rating ([11]; 125 g ai/ha): 5
